Earlier results as cited in patent publication US8158770B2, “Content dependent inhibitors of cytidine deaminases and uses thereof” (University of Rochester, priority 2004, dated 2012).

Experiments:
[1] = by comparison to 5-aza-dC and ara-C
[2] = by comparison to 5-aza-dC and ara-C; remark: listed apart in the source

- chemically stable in aqueous solution, up to pH [2]: ≤ 12 pH
Structure (SMILES): O=c1ncccn1[C@@H]1O[C@H](CO)[C@@H](O)[C@H]1O [zebularine, 1-(beta-D-ribofuranosyl)-1,2-dihydropyrmidin-2-one]
- cytotoxicity [1]: considerably less cytotoxic
